One series concerns the target SARS-CoV-2 MPro (Severe acute respiratory syndrome coronavirus 2, UniProt P0DTD1). As to the kind of experiment: MPro activity assay (de-quenching of Edans fluorescence on cleavage of a Dabcyl/Edans peptide). It counts as biochemical. Particulars: for IC50: 60 min pre-incubation, 5 μM substrate; for Class (MPro activity class): in-house acquired data, internal screening under standardized conditions (128 compounds); for activity at 10 µM: read-out: % activity MPro.

The subject of series [1] is SARS-CoV-2 (βCoV/KOR/KCDC03/2020). As to the kind of experiment: microbe, parasite or virus in culture. It counts as cell-based.
A further series can be described thus: in vitro. The following applies: African green monkey.
The nature of series [2]: Cytotoxicity assay, WST-1. Particulars: human, CC50 A549 cells.
The subject of another series is MPro. The following applies: compiled from peer-reviewed sources (287 compounds) ref the 18 original articles; cited from earlier work.
A further series has as its system SARS-CoV-2. Further details: method as in Henss et al., 2021. Particulars: 72 h assay ref Henss et al., 2021, cited from earlier work.
The test system of series [3] is human lung cell line A549. As to the kind of experiment: Cytotoxicity assay, WST-1. Particulars: read-out: CC50 A549 cells, 24 h.
[4] abbreviates: Severe acute respiratory syndrome coronavirus 2, Vero, 24 h.
The mark [5] stands for this setting: Severe acute respiratory syndrome coronavirus 2, Vero, read-out: inhibition of viral replication.

Here are results for 20 molecules from paper PMC10323144, “Garbage in, garbage out: how reliable training data improved a virtual screening approach against SARS-CoV-2 MPro” (Frontiers in Pharmacology, 2023).

≈ marks a conversion by molar mass, not a printed value. Where “and” joins values, the source holds several entries; their conditions need not be identical. Equal entries are not always repeated. Where two headings read alike, the source gives them in different places. Marks after values point to notes of the source that are not given here.

A word on the IC50: it is the concentration that gives 50% inhibition. Take `O=C(/C=C/c1ccc2ccccc2c1)c1ccccc1O` [compound 25]: the IC50 worked out at 0.46 ± 0.21 µM against SARS-CoV-2 MPro and 17.5 µM in series [1]. The CC50 in “in vitro” came out at 38.8 µM. Also, in series [2], the CC50 at 24 h is > 50 µM.
As usually defined, the inhibition is the drop in the measured response relative to a control, in per cent. Take `O=C(OC[C@H]1O[C@@H]([S+]([O-])c2ccccc2)[C@H](OC(=O)c2ccccc2)[C@@H](OC(=O)c2ccccc2)[C@@H]1OC(=O)c1ccccc1)c1ccccc1` (stereo partly shown) [7a]: the IC50 at SARS-CoV-2 MPro was 20.2 ± 1.9 µM; in series [1] (setting [4]) it was > 50 µM. Moreover, the inhibition at 25 µM in series [1] (Severe acute respiratory syndrome coronavirus 2, Vero, at 25 μM, read-out: inhibition of viral replication) was found to be 15%. Further, in series [1] (setting [5]), the inhibition at 50 µM is 21%. In the series “in vitro”, the CC50 was > 50 µM.
Consider `O=c1c(Cl)c(Cl)cnn1Cc1nc2ccccc2c2ccccc12` [39d], for which the IC50 against SARS-CoV-2 MPro amounted to 2 µM. The inhibition at 50 µM in series [1] (setting [5]) stood at 18%. The “impairment of cell viability” value in the series with Vero cells (at 50 μM) stood at 13%.
Turning to `CCC(CC)COC(=O)[C@H](C)N[P@](=O)(OC[C@H]1O[C@@](C#N)(c2ccc3c(N)ncnn23)[C@H](O)[C@@H]1O)Oc1ccccc1` [Remdesivir], the IC50 in series [1] was determined as 7.8 µM; in series [1] (setting [4]), 8 µM. Besides, the “Class (MPro activity class)” value with MPro is given as 0 (compounds with IC50 > 20 μM, percentage inhibition <80% at 20 µM or 50 μM, or percentage enzyme inhibition <50% at 10 µM were labelled as INACTIVE). In the series on Vero cells, the “SI: selectivity index = CC50 mammalian cell/IC50 SARS-CoV-2” value is on record as >50 (>6.4) ^a. For the same molecule, in the series “in vitro”, the CC50 was > 50 µM.
With `O=C(O[C@@H]1Cc2c(O)cc(O)cc2O[C@@H]1c1cc(O)c(O)c(O)c1)c1cc(O)c(O)c(O)c1` [epigallocatechin gallate], the “IC50 SARS-CoV-2 replication” value in the series with SARS-CoV-2 is 1.73 µg/mL (≈ 3.77 µM). In addition, the IC50 in the series on SARS-CoV-2 (read-out: IC50 SARS-CoV-2 replication) was 3.9 µM.
As for `O=C(/C=C/c1cccc2ccccc12)c1c(O)ccc2ccccc12` [28d], the IC50 was 1.4 µM and 1.35 µM on SARS-CoV-2 MPro; 48.9 µM in series [1] (setting [4]). Moreover, the “impairment of cell viability” value with Vero cells (African green monkey) is listed as ~25%. For the same molecule, the CC50 in the series “in vitro” is > 50 µM. Moreover, in series [2], the CC50 at 24 h was > 100 µM.
In the case of `[O-][n+]1onc2ccc(/C=C/Sc3ccc(Cl)cc3)cc21` [3d], the figures for the concentration for half-maximal inhibition (IC50) (against SARS-CoV-2 MPro; in series [1]; in series [1] (setting [4])) were 0.73 ± 0.16 µM, 8.3 µM and ~8 µM, respectively. Moreover, the CC50 in the series “in vitro” was 15.2 µM; in series [3], < 50 µM. In addition, the CC50 at 24 h in series [2] is ≤ 50 µM.
`Nc1ccc(S(=O)(=O)c2ccc(Nc3c([N+](=O)[O-])c(Cl)cc4c3no[n+]4[O-])cc2)cc1` [22d]: the 50% inhibitory concentration (IC50) was 0.37 ± 0.085 µM on SARS-CoV-2 MPro, 44.8 µM in series [1] and ~44 µM in series [1] (setting [4]). The CC50 in the series “in vitro” is > 50 µM. The CC50 at 24 h in series [2] is > 100 µM.
Take `O=c1c(Cl)c(Cl)cnn1Cc1nc2ccccc2c2ccccc12` [Cpd 39]: at SARS-CoV-2 MPro, the IC50 was found to be 1.97 ± 0.5 µM and the “Class (MPro activity class)” value was 0 (compounds with IC50 > 20 μM, percentage inhibition <80% at 20 µM or 50 μM, or percentage enzyme inhibition <50% at 10 µM were labelled as INACTIVE). In series [1] (setting [4]), the IC50 was > 50 µM. Also, the CC50 in the series “in vitro” was > 50 µM. The molecule also returned a CC50 at 24 h in series [2] of 50 to 100 µM.
`CCN(CC)CCCC(C)Nc1ccnc2cc(Cl)ccc12` (stereo not shown) [Chloroquine]: the figures for the IC50 in series [1] and in series [1] (setting [4]) were 17.8 µM and 18 µM, respectively. Moreover, the “Class (MPro activity class)” value in the series on MPro is listed as 0 (compounds with IC50 > 20 μM, percentage inhibition <80% at 20 µM or 50 μM, or percentage enzyme inhibition <50% at 10 µM were labelled as INACTIVE). The CC50 in “in vitro” was > 150 µM.
For the molecule `O=c1c2ccccc2[se]n1-c1ccccc1` [Ebselen], the figures for the IC50 in series [1] and in series [1] (setting [4]) were 9.7 µM and 10 µM, respectively. Moreover, the CC50 in the series “in vitro” is > 50 µM. Moreover, the CC50 at 24 h in series [2] was > 100 µM.
As for `Cc1cccc(C)c1OCC(=O)N[C@@H](Cc1ccccc1)[C@@H](O)C[C@H](Cc1ccccc1)NC(=O)[C@H](C(C)C)N1CCCNC1=O` [Lopinavir], the IC50 in series [1] worked out at 21.5 µM; in series [1] (setting [4]), 22 µM. Further, in the series with MPro, the “Class (MPro activity class)” value was 0 (compounds with IC50 > 20 μM, percentage inhibition <80% at 20 µM or 50 μM, or percentage enzyme inhibition <50% at 10 µM were labelled as INACTIVE). Also, the CC50 in “in vitro” was > 150 µM.
Take `[O-][n+]1onc2ccc(/C=C\c3ccc(Cl)cc3)cc21` [2d]: the activity at 25 µM at SARS-CoV-2 MPro (read-out: MPro activity (%)) was 53.2 ± 0.2%. The CC50 at 24 h in series [2] is > 50 µM.
For `[O-][n+]1onc2ccc(/C=C/[S+]([O-])c3ccc(Cl)cc3)cc21` (stereo not shown) [4d], the IC50 on SARS-CoV-2 MPro is 0.121 ± 0.002 µM; in series [1], 7.3 µM; in series [1] (setting [4]) it was ~8 µM. Besides, the figures for the CC50 (in the series “in vitro”; in series [3]) were 15.2 µM and 50 to 100 µM, respectively. For the same molecule, the CC50 at 24 h in series [2] is ≤ 50 µM.
Molecule `O=C(/C=C/c1ccc2ccccc2c1)c1c(O)ccc2ccccc12` [27d] gave an IC50 at SARS-CoV-2 MPro of 5.8 µM. For the same molecule, in series [1], the “antiviral activity (in words)” value was “lacked antiviral activity”.
On to `CC(C)(C)OC(=O)Nc1cccn(C(CC2CCCCC2)C(=O)NC(CC2CCNC2=O)C(=O)C(=O)NC2CC2)c1=O` (stereo not shown) [compound 13a], for which the activity at 10 µM at SARS-CoV-2 MPro is 98.6 ± 0.9%. Further, the “Class (MPro activity class)” value in the series with MPro is 1 (Compounds with IC50 < 10 µM or with a percentage of enzyme inhibition >50% at 10 µM were labelled as ACTIVE).
In the case of `O=C(/C=C/c1ccc2no[n+]([O-])c2c1)c1ccc(Cl)cc1` [5d], the IC50 was 0.64 ± 0.02 µM against SARS-CoV-2 MPro, 43.2 µM in series [1] and ~44 µM in series [1] (setting [4]). The CC50 in the series “in vitro” was > 50 µM. Further, the CC50 at 24 h in series [2] is > 50 µM.
For the molecule `Cc1cccc(Cl)c1-n1sc2ccccc2c1=O` [COV19011], the “Class (MPro activity class)” value at SARS-CoV-2 MPro is 1 (Compounds with IC50 < 10 µM or with a percentage of enzyme inhibition >50% at 10 µM were labelled as ACTIVE).
On the same count and under the same terms, next, `CC(=NNC(N)=S)c1cc2ccccc2oc1=O` [COV19136]: 0 (compounds with IC50 > 20 μM, percentage inhibition <80% at 20 µM or 50 μM, or percentage enzyme inhibition <50% at 10 µM were labelled as INACTIVE).
Regarding `O=CC(CC1CCNC1=O)NC(=O)C(CC1CCCCC1)NC(=O)c1cc2ccccc2[nH]1` (stereo not shown) [11a], the activity at 10 µM on SARS-CoV-2 MPro is 104 ± 1.1%. The “Class (MPro activity class)” value with MPro is on record as 1 (Compounds with IC50 < 10 µM or with a percentage of enzyme inhibition >50% at 10 µM were labelled as ACTIVE).
